In brackets after ≈: the same amount, converted by molar mass.
Key:
B. subtilis ATCC 6633 = tested on: B. subtilis ATCC 6633; design: method as in PMID 25897586; details: B. s. ATCC 6633; compounds 1–5; cited from earlier work
HeLa cell line [1] = tested on: HeLa cell line; design: method as in PMID 25897586; details: IC30 = 30% or greater destruction of cells; cited from earlier work
M. luteus ATCC 10240 = tested on: M. luteus ATCC 10240; design: method as in PMID 25897586; details: M. l. ATCC 10240; compounds 1–5; cited from earlier work
S. aureus ATCC 25923 [2] = experiment: Checkerboard broth dilution synergy assay; assay type: cell-based
Outline: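 Checkerboard broth microdilution against S. aureus ATCC 25923 paired each thiosemicarbazide with amoxicillin, gentamicin, levofloxacin, linezolid or vancomycin. FICI is the sum of each drug's MIC in combination divided by its MIC alone: ≤0.5 synergy, 0.5–1 additive, 1–4 indifferent, ≥4 antagonism.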

L929 cell line [3] = experiment: Cytotoxicity (earlier study); assay type: cell-based; details: L929 IC30 / MIC S. aureus ATCC 25923
Description: (§1) For the compound with the best solubility (2), its cytotoxicity against L929 and HeLa cells was presented previously. The cytotoxicity was expressed as rigorous IC30 values, defined as the highest dilutions of test samples that cause 30% or greater destruction of cells.

HeLa cell line [4] = experiment: Cytotoxicity (earlier study); assay type: cell-based; details: HeLa IC30 / MIC S. aureus ATCC 25923
Description: as §1

[5] = tested on: S. epidermidis ATCC 12228; design: method as in PMID 25897586; details: S. e. ATCC 12228; compounds 1–5; cited from earlier work
MSSA-3 = experiment: MIC, clinical isolate of S. aureus; assay type: cell-based; details: Staphylococcus aureus; clinical isolate MSSA-3; read-out: MIC
Outline: (§2)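 Reference antibiotics (amoxicillin, gentamicin, levofloxacin, linezolid, vancomycin) accompanied the thiosemicarbazide series in each test. Strains were Gram-positive ATCC type cultures together with clinical S. aureus isolates, both methicillin-sensitive and methicillin-resistant.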

MRSA-1 = experiment: MIC, clinical isolate of S. aureus; assay type: cell-based; details: Staphylococcus aureus; clinical isolate MRSA-1; read-out: MIC
Outline: as §2

MSSA-1 = experiment: MIC, clinical isolate of S. aureus; assay type: cell-based; details: Staphylococcus aureus; clinical isolate MSSA-1; read-out: MIC
Outline: as §2

MSSA-2 = experiment: MIC, clinical isolate of S. aureus; assay type: cell-based; details: Staphylococcus aureus; clinical isolate MSSA-2; read-out: MIC
Outline: as §2

MSSA-4 = experiment: MIC, clinical isolate of S. aureus; assay type: cell-based; details: Staphylococcus aureus; clinical isolate MSSA-4; read-out: MIC
Outline: as §2

[6] = tested on: human foreskin fibroblast Hs27 cells (CRL-1634); experiment: MTT cytotoxicity assay; assay type: cell-based; details: Homo sapiens, 24 h of treatment
MTT cytotoxicity assay = assay type: cell-based, human; details: human, Hs27 foreskin fibroblast cells (ATCC CRL-1634), 25 µg/mL, 24 h, vehicle control = 100%
B. cereus ATCC 10876 = tested on: B. cereus ATCC 10876; design: method as in PMID 25897586; details: B. c. ATCC 10876; compounds 1–5; cited from earlier work
L929 cell line [7] = tested on: L929 cell line; design: method as in PMID 25897586; details: IC30 = 30% or greater destruction of cells; cited from earlier work
S. aureus ATCC 25923 [8] = tested on: S. aureus ATCC 25923; design: method as in PMID 25897586; details: S. a. ATCC 25923; compounds 1–5; cited from earlier work
S. aureus ATCC 6538 = tested on: S. aureus ATCC 6538; design: method as in PMID 25897586; details: S. a. ATCC 6538; compounds 1–5; cited from earlier work

Question: For `Cc1cccc(C(=O)NC(=S)NNC(=O)c2cccc(Cl)c2Cl)c1` [compound 2], which MIC (B. subtilis ATCC 6633) is on record?
Answer: 0.49 µg/mL (≈ 1.28 µM)

Question: What about the IC30 (HeLa cell line [1]) of the same molecule?
Answer: 30.97 µg/mL (≈ 81 µM)

Question: What about the MIC (M. luteus ATCC 10240) of the same molecule?
Answer: 0.98 µg/mL (≈ 2.56 µM)

Question: What about the “interaction in combination” value (S. aureus ATCC 25923 [2]; combination with amoxicillin) of the same molecule?
Answer: additive

Question: What about the “interaction in combination” value (S. aureus ATCC 25923 [2]; combination with gentamicin) of the same molecule?
Answer: no interactions

Question: And the “interaction in combination” value (S. aureus ATCC 25923 [2]; combination with levofloxacin)?
Answer: no interactions

Question: And the “interaction in combination” value (S. aureus ATCC 25923 [2]; combination with linezolid)?
Answer: synergistic

Question: And the “interaction in combination” value (S. aureus ATCC 25923 [2]; combination with vancomycin)?
Answer: no interactions

Question: And the “selectivity index SI (SI = IC30/MIC)” value (L929 cell line [3])?
Answer: 3.94

Question: And the “selectivity index SI (SI = IC30/MIC)” value (HeLa cell line [4])?
Answer: 3.97

Question: What about the MIC [5] of the same molecule?
Answer: 3.91 µg/mL (≈ 10.2 µM)

Question: And the MIC (MSSA-3)?
Answer: > 500 µg/mL

Question: And the MIC (MRSA-1)?
Answer: 500 µg/mL (≈ 1310 µM)

Question: What about the MIC (MSSA-1) of the same molecule?
Answer: > 500 µg/mL

Question: And the MIC (MSSA-2)?
Answer: > 500 µg/mL

Question: What about the MIC (MSSA-4) of the same molecule?
Answer: 500 µg/mL (≈ 1310 µM)

Question: And the IC50 [6]?
Answer: > 25 µg/mL

Question: What about the viability at 24 h, 25 µg/mL (MTT cytotoxicity assay) of the same molecule?
Answer: 76.7%

Question: And the MIC (B. cereus ATCC 10876)?
Answer: 1.95 µg/mL (≈ 5.1 µM)

Question: What about the IC30 (L929 cell line [7]) of the same molecule?
Answer: 30.78 µg/mL (≈ 80.5 µM)

Question: What about the MIC (S. aureus ATCC 25923 [8]) of the same molecule?
Answer: 7.81 µg/mL (≈ 20.4 µM)

Question: And the MIC (S. aureus ATCC 6538)?
Answer: 7.81 µg/mL (≈ 20.4 µM)
